From US20110213179A1, “METHOD OF EVALUATING EVENNESS OF SUPLATAST TOSILATE CRYSTAL, EVEN CRYSTAL, AND PROCESS FOR PRODUCING THE SAME” (TAIHO PHARMACEUTICAL CO., LTD., priority 2004, published 2011)

Assay: Stability test: crystals stored at 60° C. for three months, amount of decomposition products
Format: physicochemical
Procedure: Suplatast tosilate crystals of the present invention produced in Examples 3 and 4 (Lots A and B) and first-form suplatast tosilate crystals produced through the method described in Japanese Patent Publication (kokoku) No. 1991-70698 (Lots C, D, and E) (1.0 g for each Lot) were stored at 60° C. for three months for stability measurement. For reference, second-form suplatast tosilate crystals produced through the method described in JP-A-1995-252213 (Lot F) and third-form suplatast tosilate crystals produced through the method described in WO 02/083633 (Lot G) were subjected to stability measurement in a manner similar to that described above.
As is clear from Table 1, all the first-form crystals produced through the conventionally known production method undergo decomposition, but the crystals produced through the production method of the present invention undergo virtually no decomposition and are stable.

| SMILES | Amount (%) of suplatast tosilate decomposition products produced at 60° C.: Decomposition product 2 (1 month) [%] | Amount (%) of suplatast tosilate decomposition products produced at 60° C.: Decomposition product 3 (1 month) [%] | Amount (%) of suplatast tosilate decomposition products produced at 60° C.: Decomposition product 1 (1 month, p-toluenesulfonate) [%] | Amount (%) of suplatast tosilate decomposition products produced at 60° C.: Total amount of decomposition products (1 month, p-toluenesulfonate) [%] | Amount (%) of suplatast tosilate decomposition products produced at 60° C.: Decomposition product 1 (2 months, p-toluenesulfonate) [%] | Amount (%) of suplatast tosilate decomposition products produced at 60° C.: Decomposition product 2 (2 months, p-toluenesulfonate) [%] | Amount (%) of suplatast tosilate decomposition products produced at 60° C.: Decomposition product 3 (2 months, p-toluenesulfonate) [%] | Amount (%) of suplatast tosilate decomposition products produced at 60° C.: Total amount of decomposition products (2 months, p-toluenesulfonate) [%] | Amount (%) of suplatast tosilate decomposition products produced at 60° C.: Decomposition product 1 (3 months, p-toluenesulfonate) [%] | Amount (%) of suplatast tosilate decomposition products produced at 60° C.: Decomposition product 2 (3 months, p-toluenesulfonate) [%] | Amount (%) of suplatast tosilate decomposition products produced at 60° C.: Decomposition product 3 (3 months, p-toluenesulfonate) [%] | Amount (%) of suplatast tosilate decomposition products produced at 60° C.: Total amount of decomposition products (3 months, p-toluenesulfonate) [%] |
| --- | --- | --- | --- | --- | --- | --- | --- | --- | --- | --- | --- | --- |
| CCOCC(O)COc1ccc(NC(=O)CC[S+](C)C)cc1.Cc1ccc(S(=O)(=O)[O-])cc1 (racemic) [Third-form crystals (ref.), (±)-[2-[4-(3-ethoxy-2-hydroxypropoxy)phenylcarbamoyl]ethyl]dimethylsulfonium p-toluenesulfonate] | 0.0 | 0.0 | 0.0 | 0.0 | 0.0 | 0.0 | 0.0 | 0.0 | 0.0 | 0.0 | 0.0 | 0.0 |
| CCOCC(O)COc1ccc(NC(=O)CC[S+](C)C)cc1.Cc1ccc(S(=O)(=O)[O-])cc1 (racemic) [First-form crystals Lot C, (±)-[2-[4-(3-ethoxy-2-hydroxypropoxy)phenylcarbamoyl]ethyl]dimethylsulfonium p-toluenesulfonate] | 0.0 | 0.0 | 0.1 | 0.1 | 0.6 | 0.3 | 0.2 | 1.1 | 1.3 | 0.4 | 0.4 | 2.1 |
| CCOCC(O)COc1ccc(NC(=O)CC[S+](C)C)cc1.Cc1ccc(S(=O)(=O)[O-])cc1 (racemic) [Invention crystals (Ex. 3), (±)-[2-[4-(3-ethoxy-2-hydroxypropoxy)phenylcarbamoyl]ethyl]dimethylsulfonium p-toluenesulfonate] | 0.0 | 0.0 | 0.0 | 0.0 | 0.0 | 0.0 | 0.0 | 0.0 | 0.0 | 0.0 | 0.0 | 0.0 |

Now from value to compound:

| Amount (%) of suplatast tosilate decomposition products produced at 60° C.: Decomposition product 2 (1 month) [%] | Amount (%) of suplatast tosilate decomposition products produced at 60° C.: Decomposition product 3 (1 month) [%] | Amount (%) of suplatast tosilate decomposition products produced at 60° C.: Decomposition product 1 (1 month, p-toluenesulfonate) [%] | Amount (%) of suplatast tosilate decomposition products produced at 60° C.: Total amount of decomposition products (1 month, p-toluenesulfonate) [%] | Amount (%) of suplatast tosilate decomposition products produced at 60° C.: Decomposition product 1 (2 months, p-toluenesulfonate) [%] | Amount (%) of suplatast tosilate decomposition products produced at 60° C.: Decomposition product 2 (2 months, p-toluenesulfonate) [%] | Amount (%) of suplatast tosilate decomposition products produced at 60° C.: Decomposition product 3 (2 months, p-toluenesulfonate) [%] | Amount (%) of suplatast tosilate decomposition products produced at 60° C.: Total amount of decomposition products (2 months, p-toluenesulfonate) [%] | Amount (%) of suplatast tosilate decomposition products produced at 60° C.: Decomposition product 1 (3 months, p-toluenesulfonate) [%] | Amount (%) of suplatast tosilate decomposition products produced at 60° C.: Decomposition product 2 (3 months, p-toluenesulfonate) [%] | Amount (%) of suplatast tosilate decomposition products produced at 60° C.: Decomposition product 3 (3 months, p-toluenesulfonate) [%] | Amount (%) of suplatast tosilate decomposition products produced at 60° C.: Total amount of decomposition products (3 months, p-toluenesulfonate) [%] | SMILES |
| --- | --- | --- | --- | --- | --- | --- | --- | --- | --- | --- | --- | --- |
| 0.0 | 0.0 | 0.0 | 0.0 | 0.3 | 0.1 | 0.1 | 0.5 | 0.9 | 0.2 | 0.3 | 1.4 | CCOCC(O)COc1ccc(NC(=O)CC[S+](C)C)cc1.Cc1ccc(S(=O)(=O)[O-])cc1 (racemic) [First-form crystals Lot E, (±)-[2-[4-(3-ethoxy-2-hydroxypropoxy)phenylcarbamoyl]ethyl]dimethylsulfonium p-toluenesulfonate] |
| 0.0 | 0.0 | 0.0 | 0.0 | 0.0 | 0.0 | 0.0 | 0.0 | 0.1 | 0.1 | 0.0 | 0.2 | CCOCC(O)COc1ccc(NC(=O)CC[S+](C)C)cc1.Cc1ccc(S(=O)(=O)[O-])cc1 (racemic) [Second-form crystals (ref.), (±)-[2-[4-(3-ethoxy-2-hydroxypropoxy)phenylcarbamoyl]ethyl]dimethylsulfonium p-toluenesulfonate] |
| 0.0 | 0.0 | 0.0 | 0.0 | 0.4 | 0.2 | 0.1 | 0.7 | 0.9 | 0.3 | 0.3 | 1.5 | CCOCC(O)COc1ccc(NC(=O)CC[S+](C)C)cc1.Cc1ccc(S(=O)(=O)[O-])cc1 (racemic) [First-form crystals Lot D, (±)-[2-[4-(3-ethoxy-2-hydroxypropoxy)phenylcarbamoyl]ethyl]dimethylsulfonium p-toluenesulfonate] |
| 0.0 | 0.0 | 0.0 | 0.0 | 0.0 | 0.0 | 0.0 | 0.0 | 0.0 | 0.0 | 0.0 | 0.0 | CCOCC(O)COc1ccc(NC(=O)CC[S+](C)C)cc1.Cc1ccc(S(=O)(=O)[O-])cc1 (racemic) [Invention crystals (Ex. 4), (±)-[2-[4-(3-ethoxy-2-hydroxypropoxy)phenylcarbamoyl]ethyl]dimethylsulfonium p-toluenesulfonate] |
